The subject of one data set is CLB-70 line. To be noted: cited from earlier work.
Data set [1] concerns CLBL-1 cell line (canine B-cell lymphoma). Put plainly: MTT assay, antiproliferative activity against CLBL-1. The data set is classed as cell-based. To be noted: for IC50: Canis lupus familiaris, CLBL-1, 72 h of exposure, MTT, mean ± SD; for SI CLBL-1: ratio IC50 NIH/3T3 / IC50 CLBL-1. From the text:
(§1) The CLB70 cell line (canine chronic B-cell lymphocytic leukemia) was established at the Department of Pharmacology and Toxicology, Wrocław University of Environmental and Life Sciences. The CLBL-1 cell line (canine B-cell lymphoma) was kindly provided by Dr. Barbara C. Rütgen from the Institute of Immunology, Department of Pathobiology, University of Veterinary Medicine, Vienna. The T-24 (human bladder carcinoma), Caco-2 (human colorectal adenocarcinoma), and NIH/3T3 (mouse embryonic fibroblasts) cell lines were purchased from the American Type Culture Collection (ATCC, Rockville, MD, USA).
(§2) Cell cultures were maintained in their respective growth media, with fetal bovine serum (FBS) concentrations ranging from 10% to 20%, depending on the cell line. Penicillin-streptomycin (PS) and L-glutamine (L-Glu) were consistently added at 1% each to all media. CLB70 cells were cultured in RPMI ADVANCE medium supplemented with 20% FBS, while CLBL-1 cells were maintained in RPMI-1640 medium with 20% FBS. T-24 cells were cultured in McCoy′s 5A medium with 10% FBS, and Caco-2 cells in Eagle′s Minimum Essential Medium (EMEM) with 20% FBS. NIH/3T3 cells were maintained in high-glucose DMEM (DMEM HG) with 10% FBS. All cell cultures were grown in T-75 flasks under a humidified atmosphere at 37 °C and 5% CO2 and passaged every 3 days to maintain optimal cell density (70–80% confluence).
(§3) Stock solutions used in the experiments were freshly prepared for each trial by dissolving the tested compounds in biological-grade DMSO. These stock solutions were then diluted with the culture medium appropriate for each specific cell line to achieve the desired final concentrations, which ranged from 3.125 to 100 µM. The final DMSO concentration in each well was maintained below 1%, a level generally considered non-toxic to cells. The MTT assay was employed to evaluate the antiproliferative and cytotoxic effects of the compounds on cancer cell lines, following a previously described protocol with minor modifications. Cells were seeded in 96-well plates at the following densities: 1.5 × 10^4 cells/mL (NIH/3T3), 2 × 10^4 cells/mL (T-24, Caco-2), and 3 × 10^5 cells/mL (CLB70, CLBL-1). Each plate included control wells with untreated cells and wells with vehicle controls (culture medium specific to each cell line).
(§4) After 72 h of treatment with the tested compounds, 10 µL of 3-(4,5-dimethylthiazol-2-yl)-2,5-diphenyltetrazolium bromide (MTT) solution (5 mg/mL) was added to each well. The cells were subsequently incubated with MTT for an additional 3 h to allow the formation of formazan crystals. Following this, 40 µL of lysis buffer (composed of 46 g sodium dodecyl sulfate, 150 mL dimethylformamide, and 183.2 mL Milli-Q water) was added to each well to dissolve the formazan. After a 24 h incubation at room temperature, the optical density (OD) of the resulting formazan product was measured using a spectrophotometric microplate reader (Spark, Tecan, Männedorf, Switzerland) at 570 nm.
(§5) The results were determined from three independent experiments (four wells each) and presented as mean IC50 value ± SD from at least […], each performed in quadruplicate. IC50 values (the concentration of the compound required to inhibit 50% of cell growth) were calculated from dose–response curves.

Data set [2] concerns CLB70 cell line (canine chronic B-cell lymphocytic leukemia). Put plainly: MTT assay, antiproliferative activity against CLB70. The class given is cell-based. To be noted: for IC50: Canis lupus familiaris, CLB70, 72 h of exposure, MTT, mean ± SD; for SI CLB70: ratio IC50 NIH/3T3 / IC50 CLB70.
From the text: as §1, §2, §3, §4, §5

For data set [3], the system named is T-24 (human bladder carcinoma). Put plainly: MTT assay, antiproliferative activity against T-24. The class given is cell-based. Particulars: for antiproliferative activity against T-24 (in words): 72 h, up to 100 µM; for antiproliferative activity against T-24 (in words) / IC50: MTT; for IC50: Homo sapiens, 72 h of exposure, mean ± SD; for SI T-24: ratio IC50 NIH/3T3 / IC50 T-24.
From the text: as §1, §2, §3, §4, §5
A general note: Formazan colour is commonly taken as a measure of viable cells.

The test system of data set [4] is CaCo-2 (human colorectal adenocarcinoma). Put plainly: MTT assay, antiproliferative activity against CaCo-2. The class given is cell-based. To be noted: for antiproliferative activity against CaCo-2 (in words): 72 h, up to 100 µM; for antiproliferative activity against CaCo-2 (in words) / IC50: MTT; for IC50: Homo sapiens, Caco-2, 72 h of exposure, mean ± SD; for SI CaCo-2: ratio IC50 NIH/3T3 / IC50 CaCo-2.
From the text: as §1, §2, §3, §4, §5

Data set [5] deals with NIH/3T3 (mouse embryonic fibroblasts). Briefly: MTT assay, normal cell line NIH/3T3. The data set is classed as cell-based. Particulars: NIH3T3, 72 h of exposure.
From the text: as §1, §2, §3, §4, §5

The nature of data set [6]: Quantitative hemolysis assay on red blood cells. The data set is classed as cell-based. To be noted: human, pH 7.4; 72 h incubation, highest concentration (200 μM). The procedure:
To evaluate the hemolytic activity and cytotoxicity of the tested compounds, a quantitative hemolysis assay was conducted using human red blood cells (RBCs), following the method described by Pruchnik et al., with minor modifications.
RBCs were obtained from healthy donors through the Blood Donation Center in Wrocław. […] The collected RBCs were gently resuspended and washed three times with cold isotonic phosphate-buffered saline (PBS, pH 7.4) to remove plasma and cellular debris.
All tested compounds were dissolved in biological-grade DMSO. A series of working solutions was prepared by diluting the stock solutions to final concentrations of 6.25, 12.50, 25, 50, 100, and 200 μM. […] Control samples contained no tested compounds, while vehicle control samples contained DMSO at the same concentration as the treated samples. Positive control samples (A100%) were prepared by inducing complete hemolysis with Milli-Q water. All experiments were performed in triplicate, with three independent replicates for each condition.
The erythrocyte suspension was adjusted to a final hematocrit of 1.2% in all test tubes, with a total sample volume of 1 mL. Samples were incubated at 37 °C under static conditions for 2, 24, and 72 h to assess both short- and long-term cytotoxic effects.
Following incubation, all samples were centrifuged at 5000 rpm for 3 min at room temperature. The supernatants were carefully transferred to a 96-well plate, and the absorbance of free hemoglobin was measured at 540 nm using a UV-Vis microplate spectrophotometer (EPOCH, BioTek, Santa Clara, CA, USA). The degree of in vitro hemolysis was calculated based on the amount of released hemoglobin relative to that in the completely hemolyzed positive control sample, according to the following formula: H[%]=As/A100%×100%, where H [%] is the percentage of erythrocyte hemolysis, As is absorbance of hemoglobin in supernatant at 540 nm, and A100% refers to the absorbance of hemoglobin in the supernatant following complete hemolysis of the erythrocytes.

The test system of another data set is T-24 cell line. Further details: method as in earlier work. To be noted: 48 h of incubation; cited from earlier work.
The subject of the next data set is Caco-2 line. Further details: method as in PMID 33198146. To be noted: 48 h of incubation; cited from earlier work.
A further data set concerns CLBL-1. Particulars: 72 h of incubation; cited from earlier work.

≈ marks a conversion by molar mass, not a printed value. Like-named read-outs stand apart in the source and are kept apart here.

One may read the IC50 as the concentration needed to halve the response being measured.

For `Cc1ccc(C)c([C@H]2CC(=O)O[C@@H](C)[C@@H]2Br)c1` (single isomer, unassigned), the IC50 with CLB-70 line (previously studied analog, reference not given, read-out: IC50 CLB70) is 106 µM.
Take `COc1cc([C@H]2CC(=O)O[C@@H](C)[C@@H]2Cl)ccc1O` (racemic) [12b, 5-t-Chloro-4-r-(4′-Hydroxy-3′-methoxyphenyl)-6-c-methyltetrahydropyran-2-one]: in data set [1], 85.7 ± 15.7 µM corresponded to half-maximal inhibition (IC50) and the “SI CLBL-1” value was more than 1.2. In addition, in data set [2], the IC50 came out at 71.2 ± 11.6 µM and the “SI CLB70” value is recorded as more than 1.4. In [3], the “antiproliferative activity against T-24 (in words)” value is “inactive” and the IC50 was more than 100 µM. For the same compound, in data set [4], the “antiproliferative activity against CaCo-2 (in words)” value was “moderate activity”, half-maximal inhibition (IC50) was put at 72.5 ± 19.8 µM and the “SI CaCo-2” value is more than 1.4. Besides, the IC50 in data set [5] was more than 100 µM. This compound also returned a hemolysis at 72 h, 200 µM in data set [6] of 10.5%.
`COc1cc([C@@H]2CC(=O)O[C@@H]2C(C)Br)ccc1O` (relative stereo) [11a, Cis-5-(1-Bromoethyl)-4-(4′-hydroxy-3′-methoxyphenyl)dihydrofuran-2-one]: in data set [1], the midpoint of inhibition, the IC50, lay at 63.2 ± 1.6 µM and the “SI CLBL-1” value is given as more than 1.6. In addition, in data set [2], the IC50 came out at 76.2 ± 5.3 µM and the “SI CLB70” value was more than 1.3. In data set [3], the “antiproliferative activity against T-24 (in words)” value is “inactive” and the IC50 was more than 100 µM. Also, in data set [4], the “antiproliferative activity against CaCo-2 (in words)” value is “moderate activity”, the IC50 was found to be 76.4 ± 10 µM and the “SI CaCo-2” value is recorded as more than 1.3. In addition, in data set [5], the IC50 is more than 100 µM. Moreover, the hemolysis at 72 h, 200 µM in [6] was 10.3%.
As to `COc1cc([C@@H]2CC(=O)O[C@@H]2C(C)Cl)ccc1O` (relative stereo) [12a, Cis-5-(1-Chloroethyl)-4-(4′-hydroxy-3′-methoxyphenyl)dihydrofuran-2-one], in data set [1], the IC50 amounted to 76.7 ± 11.5 µM and the “SI CLBL-1” value is listed as more than 1.3. Also, in [2], 75.2 ± 6.3 µM corresponded to half-maximal inhibition (IC50) and the “SI CLB70” value is more than 1.3. Besides, in data set [3], the “antiproliferative activity against T-24 (in words)” value was “inactive” and the concentration for half-maximal inhibition (IC50) was more than 100 µM. Further, in [4], the “antiproliferative activity against CaCo-2 (in words)” value is reported as “moderate activity”, the IC50 turned out to be 88.1 ± 4.4 µM and the “SI CaCo-2” value was more than 1.1. For the same compound, in [5], the IC50 was more than 100 µM.
On to `COc1cc([C@@H]2CC(=O)O[C@H]2C(C)I)ccc1O` (relative stereo) [10b, Trans-4-(4′-Hydroxy-3′-methoxyphenyl)-5-(1-iodoethyl)dihydrofuran-2-one], for which the IC50 in [1] was 46.3 ± 4.1 µM; in data set [2], 71.5 ± 7.5 µM; in data set [3], 63.4 ± 6.2 µM; in data set [4], more than 100 µM; in [5] it was more than 100 µM. Besides, the “SI CLBL-1” value in [1] was more than 2.2. In addition, in data set [2], the “SI CLB70” value was more than 1.4. In data set [3], the “antiproliferative activity against T-24 (in words)” value is recorded as “demonstrated activity”. For the same compound, the “SI T-24” value in [3] is more than 1.6. The compound further came in with a hemolysis at 72 h, 200 µM in data set [6] of 11%.
Consider `COc1cc(C=O)ccc1O` [compound 1, Vanillin], for which, in [1], it took 72.4 ± 9.4 µM to reach half-maximal inhibition (IC50) and the “SI CLBL-1” value is recorded as >1.4 ^2. In data set [2], the IC50 is 72.8 ± 2.3 µM and the “SI CLB70” value is more than 1.4. For the same compound, in data set [3], 48.5 ± 13.2 µM corresponded to half-maximal inhibition (IC50) and the “SI T-24” value is given as more than 2.1. Also, in data set [4], the “antiproliferative activity against CaCo-2 (in words)” value was “inactive” and the IC50 was more than 100 µM. For the same compound, the IC50 in data set [5] was more than 100 µM.
On to `COc1cccc2c1C(=O)c1c(O)c3c(c(O)c1C2=O)C[C@@](O)(C(=O)CO)C[C@@H]3O[C@H]1C[C@H](N)[C@H](O)[C@H](C)O1` [doxorubicin], for which the IC50 with T-24 cell line is 0.06 µM; in the data set with CLB-70 line (48 h of incubation), 0.07 µM; in the data set on CLBL-1, less than 0.09 µM. In the data set with Caco-2 line, the “IC50 Caco-2” value is listed as 2.41 µg/mL (≈ 4.43 µM).
With `COc1cc([C@@H]2CC(=O)O[C@@H]2C(C)I)ccc1O` (relative stereo) [10a, Cis-4-(4′-Hydroxy-3′-methoxyphenyl)-5-(1-iodoethyl)dihydrofuran-2-one], in [1], the IC50 is 73.6 ± 8.8 µM and the “SI CLBL-1” value was more than 1.4. Further, in [2], the IC50 is 69.7 ± 13.7 µM and the “SI CLB70” value is given as more than 1.4. For the same compound, in data set [3], the “antiproliferative activity against T-24 (in words)” value is reported as “demonstrated activity”, inhibition was half-maximal at 98.1 ± 10.4 µM (IC50) and the “SI T-24” value was more than 1.0. The compound further returned an IC50 in data set [4] of more than 100 µM. The same compound came in with an IC50 in data set [5] of more than 100 µM.

These data come from publication PMC12609600, “Novel Halolactones Derived from Vanillin: Design, Synthesis, Structural Characterization, and Evaluation of Antiproliferative and Hemolytic Activities” (Molecules, 2025).
